Each structure is given as a SMILES string. ≈ marks a conversion by molar mass, not a printed value.

In general, MIC refers to the lowest concentration found to suppress growth.

The subject of assay [1] is Salmonella enterica serovar typhimurium. In words: Broth microdilution assay (MIC). The class given is cell-based. The following applies: BHI broth, 37° C., 24 h, no visible growth. How it is done:
(§1) From the frozen stock (−80° C.), bacteria were inoculated into brain-hear infusion (BHI) agar (Becton Dickinson, Franklin Lakes, N.J.) and propagated under aerobic conditions at 37° C. for 24 h. After the incubation, one colony of each bacterial strain was transferred to BHI broth (Becton Dickinson, Franklin Lakes, N.J.) and sub-cultured at least twice into BHI before being used in experiments.
(§2) The minimal inhibitory concentration (MIC) of CAms were identified using a broth microdilution assay modified from previous studies. Briefly, the stock solutions of CAMs were first prepared by dissolving in double-distilled water (ddH2O) and then diluted in BHI broth at pre-determined concentrations. Further serial 2-fold dilutions were performed in a 96-well microplate (Becton Dickinson, Franklin Lakes, N.J.) with BHI broth. The inoculum concentration was adjusted to 5×10^6 CFU/mL with ultraviolet-visible (UV-vis) spectroscopy at 600 nm. An equal volume (100 μL) of bacterial suspension was added to each microplate well with a final volume of 200 μL. Plates were incubated at 37° C. for 24 h under aerobic conditions. The lowest CAm concentration that yielded no visible growth was recorded as the MIC. Cetyltrimethylammonium bromide (CTAB), a cationic amphiphile, served as a positive control that could mimic the proposed bactericidal mechanism of the newly synthesized tartaric acid-based compounds.
CAms were evaluated against five selected pathogenic microorganisms, including Gram-positive bacteria (i.e., S. aureus and L. monocytogenes) and Gram-negative bacteria (i.e., E. coli, S. typhimurium, and P. aeruginosa), using a turbidity-based microdilution method. MICs were taken as the lowest concentrations that inhibited the visible bacterial growth.
On the technique in general: In broth dilution the organism is exposed to a series of concentrations in liquid medium.

Assay [2] concerns Gram-positive and Gram-negative bacteria. Kind of assay: Broth microdilution assay, whole panel. The format is cell-based. The following applies: 250 μg/mL. The method, then: as §1
as §2, with “Plates were incubated at 37° C. for 24 h under aerobic conditions.” left out, “Cetyltrimethylammonium bromide (CTAB), a cationic amphiphile, served as a positive control that could mimic the proposed bactericidal mechanism of the newly synthesized tartaric acid-based compounds.” left out
CAms were evaluated against five selected pathogenic microorganisms, including Gram-positive bacteria (i.e., S. aureus and L. monocytogenes) and Gram-negative bacteria (i.e., E. coli, S. typhimurium, and P. aeruginosa), using a turbidity-based microdilution method. […]

Assay [3] concerns Pseudomonas aeruginosa ATCC 15442. In words: Broth microdilution assay (MIC). The class given is cell-based. The following applies: BHI broth, 37° C., 24 h, no visible growth. How it is done:
as §1, §2
(§3) CAms were evaluated against five selected pathogenic microorganisms, including Gram-positive bacteria (i.e., S. aureus and L. monocytogenes) and Gram-negative bacteria (i.e., E. coli, S. typhimurium, and P. aeruginosa), using a turbidity-based microdilution method. MICs were taken as the lowest concentrations that inhibited the visible bacterial growth. […] The higher MIC values for the Gram-negative bacteria could be attributed to the presence of an additional lipopolysaccharide layer, which forms a hydrophilic barrier that could prevent penetration of the highly hydrophobic CAms.

Assay [4] has as its system Listeria monocytogenes Scott A. Kind of assay: Broth microdilution assay (MIC). The class given is cell-based. The following applies: BHI broth, 37° C., 24 h, no visible growth. How it is done: as §1, §2, §3
In assay [5] the test system is Staphylococcus aureus ATCC 13565. In words: Broth microdilution assay (MIC). The class given is cell-based. The following applies: BHI broth, 37° C., 24 h, no visible growth. The method, then: as §1, §2, §3
The test system of a further assay is Escherichia coli O157:H7. Kind of assay: Broth microdilution assay (MIC). The class given is cell-based. The following applies: BHI broth, 37° C., 24 h, no visible growth. How it is done:
as §1, §2, §3

Assay [6] relates to G. vaginalis pre-formed biofilms. Kind of assay: MBC-B against pre-formed biofilms (Example 2). The class given is cell-based. The following applies: ≥3 log reduction in viable cells. The method, then: The minimum biofilm bactericidal concentrations (MBC-Bs) of the cationic amphiphiles against pre-formed biofilms of L. monocytogenes and G. vaginalis were identified. The biofilms of the two targeted microorganisms were grown in 96-well plates according to established methodology for Gram-positive and Gram-variable bacteria (Tabak et al., FEMS microbiology letters. 2009; 301(1):69-76). To identify the reduction in the number of biofilm-associated viable cells treated with different concentrations of cationic amphiphiles, the spot plate method was used (Turovskiy et al., Infectious diseases in obstetrics and gynecology. 2012; 2012:284762, 9 pages). In brief, biofilms were washed, disrupted, diluted 10^1-10^8 times with fresh medium and the samples plated on suitable solid medium.

Another assay relates to biofilms of G. vaginalis. Kind of assay: Checkerboard assay, biofilm cells. The class given is cell-based, Gardnerella vaginalis. The method, then: For biofilm formation, the overnight culture of G. vaginalis was diluted to approximately 10^7 CFU/ml and 200 μl was transferred into a 96-well tissue culture microplate and incubated anaerobically at 37° C. for 24-36 h. Following biofilm formation and removal of non-adherent cells by washing the biofilm twice with BHIG, each antimicrobial was diluted twofold separately with BHIG broth into two 96-white deep-well microplates. From each dilution of antimicrobial B, 125 μL was added horizontally over 125 μL of antimicrobial A (see FIG. 1 of Algburi et al., 2015. Path Dis 73(5)). From each combination, 200 μL samples were added to the biofilm in sequence, and the microplate was incubated for 24 h at 37° C. under anaerobic conditions. The spot plate method was utilized for counting the number of CFU/ml and evaluating the bactericidal activity (MBC-B) of each antimicrobial combination against biofilm-associated G. vaginalis. Isobolograms were used to analyze the nature of antimicrobial interaction, which is classified as synergistic, antagonistic or additive activity against the planktonic and biofilm cells.
(§4) Isobolograms were used to compare the MIC and MBC-B values of each antimicrobial alone with its MIC and MBC-B values in combination with other antimicrobials. The point on the axis (X) refers to MIC or MBC-B values of the first antimicrobial with the coordinates (0, x), and the point on the axis (Y) represents the MIC or MBC-B values of the second antimicrobial with the coordinates (y, 0) when they used alone. The two MIC or MBCs-B values are connected by a dashed line (Turovskiy Y, Chikindas M L. 2011 Probiotics Antimicrob Proteins 3:144-149). The MICs or MBCs-B of each antimicrobial combination are plotted as dots on the graph. Results are expressed according to the locations of these dots from the line that connects MICs or MBCs-B of the first and second antimicrobials. When MICs or MBCs-B values are located under the line, the two combining antimicrobials are synergized, but antagonized against the tested microorganism when these dots of interaction are above. An additive effect is observed when these dots are located on the line.

The next assay relates to vaginal lactobacilli. Kind of assay: MIC against vaginal lactobacilli. The class given is cell-based, Lactobacillus species. How it is done:
According to Clinical and Laboratory Standards Institute (CLSI 2010), the MIC is defined as the lowest concentration of antimicrobial compound producing no visible growth or complete inhibition of bacterial growth during 24 h. To determine MIC values, the broth microdilution assay was performed according to Algburi et al. (Algburi et al., 2015. Path Dis 73(5)) with minor modifications. Briefly, the overnight-grown cells were diluted with their suitable culture medium to approach ˜10^6 CFU/ml. The number of bacterial cells was identified using spot plate method (Turovskiy et al., 2012. Infect Dis Obstet Gynecol 2012:284762). The CAms were serially diluted twofold with sBHI into a non-tissue culture 96-well microplate plate (Falcon, Corning Incorporated, Corning, N.Y., USA) resulting in a final volume of 100 μl for each well. Aliquots of 100 μl of the diluted cell suspension (˜10^6 CFU/ml) were added to each well of a microplate that was treated with different concentrations of CAms. To avoid culture medium evaporation, 75 μl of mineral oil (Sigma-Aldrich, St. Louis, Mo.) was added to each treated well. The microplate was then transferred to the plate reader (Model 550, Bio-Rad Laboratories, Hercules, Calif., USA) and incubated at 37° C. for 24-36 h. The kinetic reading was statistically analyzed, and the MIC and sub-MIC of each CAm compound were determined.

In assay [7] the test system is planktonic cells of G. vaginalis. In words: Checkerboard assay, planktonic cells. The class given is cell-based, Gardnerella vaginalis. How it is done: To evaluate the potential effectiveness of the antimicrobial combinations on planktonic and biofilm cells, a checkerboard assay was performed following Algburi et al. (Algburi et al., 2015. Path Dis 73(5)) with minor modifications. For planktonic cells, the overnight grown G. vaginalis was diluted to approximately 10^6 CFU/ml. Each antimicrobial agent was diluted twofold with sBHI broth into two separate 96-well non-tissue culture microplates. From each dilution of antimicrobial B, 50 μl was added horizontally over 50 μl of antimicrobial A. Then, 100 μl of bacterial suspension (10^6 CFU/ml) was separately added to the predetermined concentration of antimicrobial combinations. The MIC of each combination was determined after 24 h of incubation.
as §4

Consider `CCCCCCCCCCCC(=O)OC(C(=O)NCCN)C(OC(=O)CCCCCCCCCCC)C(=O)NCCN.Cl.Cl` (stereo not shown) [8c], for which, in assay [1], the “MIC S. typhimurium (G−)” value was over 250 µg/mL. For the same molecule, the “antimicrobial activity at the highest concentration tested” value in [2] is “didn't show appreciable antimicrobial activity”. The “MIC P. aeruginosa (G−)” value in [3] is over 250 µg/mL. Further, the “MIC L. monocytogenes (G+)” value in assay [4] is over 250 µg/mL. In assay [5], the “MIC S. aureus (G+)” value stood at 15.6 µg/mL. In addition, the “MIC E. coli (G−)” value against Escherichia coli O157:H7 is over 250 µg/mL.
`Cc1ncc([N+](=O)[O-])n1CCO` [metronidazole, reference compound]: the MBC-B, biofilm-associated G. vaginalis in assay [6] is 500 µg/mL (≈ 2.92 mM). In the assay with biofilms of G. vaginalis, the “metronidazole's MIC against biofilms in combination with the tested CAms” value was determined as 11.1 µM and the “metronidazole's MIC against biofilms, metronidazole alone” value came to 40.4 µM. Besides, the “concentration that inhibited the growth of vaginal lactobacilli” value with vaginal lactobacilli was over 1168.5 µM. Also, the “metronidazole's MIC in combination with the tested CAms” value in assay [7] stood at 4.7 µM. Further, in [7] (Gardnerella vaginalis, read-out: MIC when used alone), the MIC stood at 37.4 µM.
`CCC[C@@H]1C[C@@H](C(=O)N[C@@H]([C@H]2O[C@H](SC)[C@H](O)[C@@H](O)[C@H]2O)[C@H](C)Cl)N(C)C1` [clindamycin, reference compound]: in [6] (Gardnerella vaginalis, pre-formed biofilm), the MBC is 20000 µg/mL (≈ 47.1 mM).
Turning to `CCCCCCCCCCCCOC(C(=O)NCCN)C(OCCCCCCCCCCCC)C(=O)NCCN.Cl.Cl` (stereo not shown) [5c], the “MIC S. typhimurium (G−)” value in [1] was over 250 µg/mL. Further, in assay [2], the “antimicrobial activity at the highest concentration tested” value is given as “didn't show appreciable antimicrobial activity”. In addition, the “MIC P. aeruginosa (G−)” value in assay [3] is over 250 µg/mL. Moreover, the “MIC L. monocytogenes (G+)” value in assay [4] was determined as 125 µg/mL. For the same molecule, in assay [5], the “MIC S. aureus (G+)” value was determined as 3.9 µg/mL. In the assay on Escherichia coli O157:H7, the “MIC E. coli (G−)” value is over 250 µg/mL.

(Values after patent publication US10759740B2, “Antibacterial agents” (Rutgers, The State University of New Jersey, priority 2016, dated 2020).)
